Measured values: patent US20240174671A1, “New 2,3-Dihydro-1H-pyrrolo[3,2-b]pyridine Derivatives as Sigma Ligands” (ACONDICIONAMIENTO TARRASENSE, priority 2021, published 2024)
Counter-ions that a name gives are not always drawn. Like-named read-outs stand apart in the source and are kept apart here.

Experiments:
[1] = biological target: T1, human σ2/TMEM97 receptor (Homo sapiens, UniProt Q5BJF2); test: Binding assay to human σ2/TMEM97 receptor ([3H]-DTG)
T1 construct: expressed in transfected cells; host or cells: HEK-293
In short: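 Membranes from transfected HEK-293 cells incubated with 10 nM [3H]-DTG in 50 mM Tris-HCl pH 8.0, 120 min at 25 °C; non-specific binding defined with 10 μM haloperidol. Bound radioactivity counted after filtration; compounds tested as % inhibition at 1 or 10 μM or at five concentrations for Ki.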

[2] = biological target: T2, human σ1 receptor (Homo sapiens, UniProt Q99720); test: Human σ1 receptor radioligand assay ([3H](+)-pentazocine); assay type: binding
T2 construct: expressed in transfected cells; host or cells: HEK-293
In short: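 Binding used [3H](+)-pentazocine, 120 min at 37° C, with non-specific binding defined by 10 μM haloperidol. Bound radioligand was collected by filtration, washed with ice-cold 10 mM Tris-HCl pH 7.4 and counted by scintillation.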

[3] = transfected HEK-293 membranes, 10 nM [3H]-DTG, 25° C., 120 minutes, read-out: Binding σ-[…] (binding to σ2-receptor expressed as Ki)
[4] = transfected HEK-293 membranes, 5 nM [3H](+)-pentazocine, 37° C., 120 minutes, read-out: Binding σ-[…] (binding to σ1-receptor expressed as Ki)

T2 sequence (Q99720 whole entry): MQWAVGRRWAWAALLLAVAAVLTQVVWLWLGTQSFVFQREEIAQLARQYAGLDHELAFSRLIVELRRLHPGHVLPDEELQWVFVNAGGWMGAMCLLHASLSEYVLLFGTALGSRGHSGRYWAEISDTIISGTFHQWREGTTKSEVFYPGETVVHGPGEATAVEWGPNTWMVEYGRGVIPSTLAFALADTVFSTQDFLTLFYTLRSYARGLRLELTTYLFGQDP
T1 sequence (Q5BJF2 whole entry): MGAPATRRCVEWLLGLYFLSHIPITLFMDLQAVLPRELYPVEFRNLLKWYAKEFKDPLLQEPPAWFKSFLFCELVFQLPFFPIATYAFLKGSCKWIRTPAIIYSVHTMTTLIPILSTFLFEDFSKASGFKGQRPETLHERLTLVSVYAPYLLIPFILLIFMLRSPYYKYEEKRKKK

SMILES	Ki [1, 3] [nM]	Ki [2, 4] [nM]	Ki [1] [nM]	Ki [2] [nM]
Cc1ccc2c(n1)C(C)(C)CN2C(=O)NC1CCN(CC2CCOCC2)CC1 [Example 42, 3,3,5-trimethyl-N-(1-((tetrahydro-2H-pyran-4-yl)methyl)piperidin-4-yl)-2,3-dihydro-1H-pyrrolo[3,2-b]pyridine-1-carboxamide]	> 1000	100 to 500	–	–
Cc1ccc2c(n1)C(C)(C)CN2C(=O)N1CCC2(CCN(CCc3ccccc3)CC2)C1 [Example 91, (8-phenethyl-2,8-diazaspiro[4.5]decan-2-yl)(3,3,5-trimethyl-2,3-dihydro-1H-pyrrolo[3,2-b]pyridin-1-yl)methanone]	–	500 to 1000	< 100	–
CN(C)[C@@H](CNC(=O)N1CC(C)(C)c2ncccc21)c1ccccc1 [Example 5, (R)—N-(2-(dimethylamino)-2-phenylethyl)-3,3-dimethyl-2,3-dihydro-1H-pyrrolo[3,2-b]pyridine-1-carboxamide]	> 1000	100 to 500	–	–
CCN[C@@H](CNC(=O)N1CC(C)(C)c2nc(C)ccc21)c1ccccc1 [Example 113, (R)—N-(2-(ethylamino)-2-phenylethyl)-3,3,5-trimethyl-2,3-dihydro-1H-pyrrolo[3,2-b]pyridine-1-carboxamide]	> 1000	–	–	100 to 500
COc1ccc(C(CNC(=O)N2CC(C)(C)c3nc(C)ccc32)N(C)C)cc1 (stereo not drawn) [Example 13, N-(2-(dimethylamino)-2-(4-methoxyphenyl)ethyl)-3,3,5-trimethyl-2,3-dihydro-1H-pyrrolo[3,2-b]pyridine-1-carboxamide]	> 1000	–	–	< 100
Cc1ccc2c(n1)C(C)(C)CN2C(=O)N1CCC2(CCN(Cc3ccccc3)C2)CC1 [Example 38, (2-benzyl-2,8-diazaspiro[4.5]decan-8-yl)(3,3,5-trimethyl-2,3-dihydro-1H-pyrrolo[3,2-b]pyridin-1-yl)methanone]	< 100	100 to 500	–	–
Cc1ccc2c(n1)C(C)(C)CN2C(=O)N[C@@H]1CCN(Cc2ccccc2)C1 [Example 18, (R)—N-(1-benzylpyrrolidin-3-yl)-3,3,5-trimethyl-2,3-dihydro-1H-pyrrolo[3,2-b]pyridine-1-carboxamide]	100 to 500	100 to 500	–	–
Cc1ccc2c(n1)C(C)(C)CN2C(=O)NC1CCN(Cc2ccccc2)CC1 [Example 1, N-(1-benzylpiperidin-4-yl)-3,3,5-trimethyl-2,3-dihydro-1H-pyrrolo[3,2-b]pyridine-1-carboxamide]	> 1000	< 100	–	–
Cc1ccc2c(n1)C(C)(C)CN2C(=O)NC[C@@H](c1cccc(F)c1)N(C)C [Example 34, (R)—N-(2-(dimethylamino)-2-(3-fluorophenyl)ethyl)-3,3,5-trimethyl-2,3-dihydro-1H-pyrrolo[3,2-b]pyridine-1-carboxamide]	> 1000	100 to 500	–	–
CC1(C)CN(C(=O)N2CCC3(CCN(CCC4CCOCC4)CC3)C2)c2cccnc21 [Example 156, (3,3-dimethyl-2,3-dihydro-1H-pyrrolo[3,2-b]pyridin-1-yl)(8-(2-(tetrahydro-2H-pyran-4-yl)ethyl)-2,8-diazaspiro[4.5]decan-2-yl)methanone]	< 100	–	–	100 to 500
CC1(C)CN(C(=O)NC2CCN(Cc3ccccc3)CC2)c2cc(F)cnc21 [Example 31, N-(1-benzylpiperidin-4-yl)-6-fluoro-3,3-dimethyl-2,3-dihydro-1H-pyrrolo[3,2-b]pyridine-1-carboxamide]	500 to 1000	< 100	–	–
Cc1ccc2c(n1)C(C)(C)CN2C(=O)NCC(c1ccccc1)N(C)C (stereo not drawn) [Example 2, N-(2-(dimethylamino)-2-phenylethyl)-3,3,5-trimethyl-2,3-dihydro-1H-pyrrolo[3,2-b]pyridine-1-carboxamide]	> 1000	–	–	< 100
CN(C)[C@@H](CNC(=O)N1CC(C)(C)c2nc(C#N)ccc21)c1ccccc1 [Example 15, (R)-5-cyano-N-(2-(dimethylamino)-2-phenylethyl)-3,3-dimethyl-2,3-dihydro-1H-pyrrolo[3,2-b]pyridine-1-carboxamide]	> 1000	–	–	< 100

Second part, led by results:

Ki [1, 3] [nM]	Ki [2, 4] [nM]	SMILES	Ki [1] [nM]	Ki [2] [nM]
100 to 500	< 100	CC1(C)CN(C(=O)[C@H]2CC[C@H](NCc3ccccc3)CC2)c2cccnc21 [Example 128, ((1r,4r)-4-(benzylamino)cyclohexyl)(3,3-dimethyl-2,3-dihydro-1H-pyrrolo[3,2-b]pyridin-1-yl)methanone dihydrochloride]	–	–
100 to 500	100 to 500	Cc1ccc2c(n1)C(C)(C)CN2C(=O)[C@H]1C[C@@H](N(C)Cc2ccccc2)C1 [Example 139, ((1s,3s)-3-(benzyl(methyl)amino)cyclobutyl)(3,3,5-trimethyl-2,3-dihydro-1H-pyrrolo[3,2-b]pyridin-1-yl)methanone]	–	–
100 to 500	< 100	Cc1ccc2c(n1)C(C)(C)CN2C(=O)[C@H]1CN(Cc2ccccc2)C[C@@H]1C [Example 125, ((3R,4R)-1-benzyl-4-methylpyrrolidin-3-yl)(3,3,5-trimethyl-2,3-dihydro-1H-pyrrolo[3,2-b]pyridin-1-yl)methanone]	–	–
< 100	< 100	CC1(C)CN(C(=O)N2CCC3(CCN(Cc4ccc(C#N)c(F)c4)CC3)C2)c2cccnc21 [Example 142, 4-((2-(3,3-dimethyl-2,3-dihydro-1H-pyrrolo[3,2-b]pyridine-1-carbonyl)-2,8-diazaspiro[4.5]decan-8-yl)methyl)-2-fluorobenzonitrile]	–	–
100 to 500	< 100	Cc1ccc2c(n1)C(C)(C)CN2C(=O)[C@H]1C[C@H](N(C)Cc2ccccc2)C1 [Example 137, ((1r,3r)-3-(Benzyl(methyl)amino)cyclobutyl)(3,3,5-trimethyl-2,3-dihydro-1H-pyrrolo[3,2-b]pyridin-1-yl)methanone]	–	–
100 to 500	100 to 500	COc1ccc(CN(C)C2CCN(C(=O)N3CC(C)(C)c4nc(C)ccc43)CC2)cc1 [Example 58, (4-((4-methoxybenzyl)(methyl)amino)piperidin-1-yl)(3,3,5-trimethyl-2,3-dihydro-1H-pyrrolo[3,2-b]pyridin-1-yl)methanone]	–	–
100 to 500	100 to 500	CN(CCc1ccccc1)[C@H]1CCCN(C(=O)N2CCc3ncccc32)C1 [Example 53, (S)-(2,3-dihydro-1H-pyrrolo[3,2-b]pyridin-1-yl)(3-(methyl(phenethyl)amino)piperidin-1-yl)methanone]	–	–
< 100	< 100	CC1(C)CN(C(=O)N2CCC3(CCN(Cc4ccccc4F)CC3)C2)c2cccnc21 [Example 141, (3,3-dimethyl-2,3-dihydro-1H-pyrrolo[3,2-b]pyridin-1-yl)(8-(2-fluorobenzyl)-2,8-diazaspiro[4.5]decan-2-yl)methanone]	–	–
> 1000	< 100	CC1(C)CN(C(=O)NC2CCN(Cc3ccc(F)cc3)CC2)c2cccnc21 [Example 48, N-(1-(4-fluorobenzyl)piperidin-4-yl)-3,3-dimethyl-2,3-dihydro-1H-pyrrolo[3,2-b]pyridine-1-carboxamide]	–	–
100 to 500	> 1000	CC1(C)CN(C(=O)N2CCC3(CCN(Cc4c(F)cccc4F)CC3)C2)c2cccnc21 [Example 150, (8-(2,6-difluorobenzyl)-2,8-diazaspiro[4.5]decan-2-yl)(3,3-dimethyl-2,3-dihydro-1H-pyrrolo[3,2-b]pyridin-1-yl)methanone]	–	–
> 1000	100 to 500	CN[C@H](CNC(=O)N1CC(C)(C)c2nc(C)ccc21)c1ccccc1 [Example 111, (S)-3,3,5-trimethyl-N-(2-(methylamino)-2-phenylethyl)-2,3-dihydro-1H-pyrrolo[3,2-b]pyridine-1-carboxamide]	–	–
100 to 500	100 to 500	Cc1ccc2c(n1)C(C)(C)CN2C(=O)N1CCC2(CC1)CN(Cc1ccccc1)C2 [Example 93, (2-benzyl-2,7-diazaspiro[3.5]nonan-7-yl)(3,3,5-trimethyl-2,3-dihydro-1H-pyrrolo[3,2-b]pyridin-1-yl)methanone]	–	–
< 100	< 100	CN(Cc1ccccc1)[C@H]1CC[C@H](C(=O)N2CC(C)(C)c3ncc(F)cc32)CC1 [Example 187, ((1r,4r)-4-(benzyl(methyl)amino)cyclohexyl)(6-fluoro-3,3-dimethyl-2,3-dihydro-1H-pyrrolo[3,2-b]pyridin-1-yl)methanone]	–	–
100 to 500	> 1000	Cc1ccc2c(n1)C(C)(C)CN2C(=O)N1CCC2(CCN(Cc3ccccn3)CC2)C1 [Example 94, (8-(pyridin-2-ylmethyl)-2,8-diazaspiro[4.5]decan-2-yl)(3,3,5-trimethyl-2,3-dihydro-1H-pyrrolo[3,2-b]pyridin-1-yl)methanone]	–	–
< 100	100 to 500	CC1(C)CN(C(=O)N2CCC3(CCN(Cc4ccc(F)c(C#N)c4)CC3)C2)c2cccnc21 [Example 143, 5-((2-(3,3-dimethyl-2,3-dihydro-1H-pyrrolo[3,2-b]pyridine-1-carbonyl)-2,8-diazaspiro[4.5]decan-8-yl)methyl)-2-fluorobenzonitrile]	–	–
< 100	500 to 1000	CN(Cc1ccc(F)cc1)C1CCN(C(=O)N2CC(C)(C)c3ncccc32)CC1 [Example 86, (3,3-dimethyl-2,3-dihydro-1H-pyrrolo[3,2-b]pyridin-1-yl)(4-((4-fluorobenzyl)(methyl)amino)piperidin-1-yl)methanone]	–	–
< 100	< 100	Cc1ccc2c(n1)C(C)(C)CN2C(=O)N1CCC(N(C)CCC(C)C)CC1 [Example 67, (4-(isopentyl(methyl)amino)piperidin-1-yl)(3,3,5-trimethyl-2,3-dihydro-1H-pyrrolo[3,2-b]pyridin-1-yl)methanone]	–	–
